In patent US20250215029A1 (Recludix Pharma, Inc., priority 2022, published 2025):
Read-outs that look alike come from different tables or passages of the source.

Tests used:
[1] = molecular target: T1, Recombinant STAT3 protein (STAT3 (G127-I722)) (Homo sapiens, UniProt P40763); assay: STAT3 Fluorescence Polarization (FP) Assay; assay type: binding; details: probe 5-FAM-GpYLPQTV-NH2 2 nM, 45-minute incubation
T1 construct: Recombinant STAT3 protein (STAT3 (G127-I722))
Outline: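 Displacement of a fluorescent phosphotyrosine peptide (5-FAM-GpYLPQTV-NH2, 2 nM) from 25 nM recombinant STAT3 G127-I722 was monitored by FP after 45 min at room temperature.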

[2] = molecular target: T2, Recombinant STAT6 protein (STAT6 (W123-T658)) (Homo sapiens, UniProt P42226); assay: STAT6 Fluorescence Polarization (FP) Assay; assay type: binding; details: 45-minute incubation
T2 construct: Recombinant STAT6 protein (STAT6 (W123-T658))
T2 sequence (P42226 123-658): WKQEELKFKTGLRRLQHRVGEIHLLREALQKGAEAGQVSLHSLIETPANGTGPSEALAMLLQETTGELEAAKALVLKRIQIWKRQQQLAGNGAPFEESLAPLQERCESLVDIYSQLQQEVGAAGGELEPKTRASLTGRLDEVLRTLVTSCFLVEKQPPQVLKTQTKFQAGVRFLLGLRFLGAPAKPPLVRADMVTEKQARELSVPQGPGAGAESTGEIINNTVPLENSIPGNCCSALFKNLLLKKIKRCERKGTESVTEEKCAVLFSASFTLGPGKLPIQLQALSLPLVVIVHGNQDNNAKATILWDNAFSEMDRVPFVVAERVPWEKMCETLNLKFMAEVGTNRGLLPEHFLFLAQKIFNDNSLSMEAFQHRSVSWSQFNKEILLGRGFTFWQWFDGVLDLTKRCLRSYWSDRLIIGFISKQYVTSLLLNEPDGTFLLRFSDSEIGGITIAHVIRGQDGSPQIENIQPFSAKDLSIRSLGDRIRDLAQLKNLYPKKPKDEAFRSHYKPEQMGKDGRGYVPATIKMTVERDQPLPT
Outline: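 Competitive FP binding: recombinant STAT6 (W123-T658) at 250 nM, labeled phosphotyrosine peptide at 2 nM, compounds at 1% DMSO, 45 min at RT before reading. IC50 values were obtained from nonlinear regression of mP versus log concentration.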

[3] = STAT3 25 nM, read-out: STAT3 (FP assay IC50)
[4] = STAT6 250 nM, probe 5-FAM-Ap[…]-NH2 2 nM, read-out: STAT6 (FP assay IC50)
[5] = STAT3 (G127-I722) 25 nM, read-out: STAT3 (FP assay IC50 class)
[6] = STAT6 (W123-T658) 250 nM, probe 5-FAM-Ap[…]-NH2 2 nM, read-out: STAT6 (FP assay IC50 class)

T1 sequence (P40763 127-722): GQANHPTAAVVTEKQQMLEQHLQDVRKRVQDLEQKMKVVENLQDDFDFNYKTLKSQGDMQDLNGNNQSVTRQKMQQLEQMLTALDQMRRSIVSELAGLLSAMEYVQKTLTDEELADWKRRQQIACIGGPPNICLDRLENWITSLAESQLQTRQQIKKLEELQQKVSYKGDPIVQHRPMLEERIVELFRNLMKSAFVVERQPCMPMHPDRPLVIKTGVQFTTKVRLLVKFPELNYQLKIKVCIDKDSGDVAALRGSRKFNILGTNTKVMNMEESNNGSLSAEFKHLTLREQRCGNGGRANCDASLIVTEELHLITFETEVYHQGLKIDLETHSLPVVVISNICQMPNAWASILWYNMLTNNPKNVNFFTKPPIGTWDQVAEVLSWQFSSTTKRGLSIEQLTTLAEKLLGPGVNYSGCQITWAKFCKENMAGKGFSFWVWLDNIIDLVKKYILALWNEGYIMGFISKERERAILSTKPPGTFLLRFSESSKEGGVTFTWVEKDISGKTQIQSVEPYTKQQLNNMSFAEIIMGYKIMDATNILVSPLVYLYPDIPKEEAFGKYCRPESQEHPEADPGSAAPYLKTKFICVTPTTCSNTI

Row | Compound | IC50 [1, 3] | IC50 [2, 4] | IC50 [1, 5] | IC50 [2, 6] | IC50 ([2]; STAT6 250 nM, probe 5-FAM-ApYKPFQDLI-NH2 2 nM, read-out: STAT6 (FP assay IC50))
1 | CS(=N)(=O)C1CN(C(=O)[C@@H]2CC[C@@H]3CCCC[C@H](NC(=O)c4cc5cc(C(F)(F)P(=O)(O)O)ccc5s4)C(=O)N32)C1 (stereo partly drawn) [Compound 73, (difluoro(2-(((3S,6S,10aS)-3-(3-(S-methylsulfonimidoyl)azetidine-1-carbonyl)-5-oxodecahydropyrrolo [1,2-a]azocin-6-yl)carbamoyl)benzo[b]thiophen-5-yl)methyl) phosphonic acid] | 0.1 to 1 µM | 3 to 30 µM | – | – | –
2 | O=C(N[C@H]1CCC[C@H]2CC[C@@H](C(=O)N3CC(c4cnccc4-n4ccnc4)C3)N2C1=O)c1cc2cc([C@@H](F)P(=O)(O)O)ccc2s1 [Compound 853, ((S)-(2-(((3S,6S,9aS)-3-(3-(4-(1H-imidazol-1-yl)pyridin-3-yl)azetidine-1-carbonyl)-5-oxooctahydro-1H-pyrrolo[1,2-a]azepin-6-yl)carbamoyl)benzo [b]thiophen-5-yl)fluoromethyl) phosphonic acid] | – | – | 1 to 10 µM | 3 to 30 µM | –
3 | O=C(N[C@H]1CCCC[C@H]2CC[C@@H](C(=O)N[C@@H](CO)Cc3cccnc3)N2C1=O)c1cc2cc(C(F)(F)P(=O)(O)O)ccc2s1 [Compound 727, (difluoro(2-(((3S,6S,10aS)-3-(((R)-1-hydroxy-3-(pyridin-3-yl)propan-2-yl)carbamoyl)-5-oxodecahydropyrrolo [1,2-a]azocin-6-yl)carbamoyl)benzo [b]thiophen-5-yl)methyl) phosphonic acid] | – | – | 1 to 10 µM | 3 to 30 µM | –
4 | C[C@H]1C[C@H]2CC[C@@H](C(=O)N3CC(c4cncnc4N4CCC4)C3)N2C(=O)[C@@H](NC(=O)c2cc3cc([C@@H](F)P(=O)(O)O)ccc3s2)C1 (single isomer, unassigned) [Compound 677] | – | – | < 0.1 µM | 3 to 30 µM | –
5 | CCO[C@H]1CC[C@H]2CC[C@@H](C(=O)N3CC(C(=O)N4CCOCC4)C3)N2C(=O)[C@@H](NC(=O)c2cc3cc(C(F)(F)P(=O)(O)O)ccc3s2)C1 [Compound 10, ((2-(((3S,6S,8S,10aR)-8-ethoxy-3-(3-(morpholine-4-carbonyl)azetidine-1-carbonyl)-5-oxodecahydropyrrolo [1,2-a]azocin-6-yl)carbamoyl)benzo[b]thiophen-5-yl)difluoromethyl) phosphonic acid] | 0.1 to 1 µM | 3 to 30 µM | – | – | –
6 | O=C(N[C@H]1CCC[C@H]2CC[C@@H](C(=O)Nc3ccc(-c4ccccc4)cc3)N2C1=O)c1ccc2ccc(C(F)(F)P(=O)(O)O)cc2c1 [Compound 29, ((7-(((3S,6S,9aS)-3-([1,1′-biphenyl]-4-ylcarbamoyl)-5-oxooctahydro-1H-pyrrolo[1,2-a]azepin-6-yl)carbamoyl)naphthalen-2-yl)difluoromethyl) phosphonic acid] | 0.1 to 1 µM | 3 to 30 µM | – | – | –
7 | N#C[C@H]1[C@H](c2ccccc2)CN(C(=O)[C@@H]2CC[C@@H]3CCCC[C@H](NC(=O)c4cc5cc(C(F)P(=O)(O)O)ccc5s4)C(=O)N32)C12CC2 (relative stereo) [Compound 229, ((2-(((3S,6S,10aS)-3-((rel-trans)-7-cyano-6-phenyl-4-azaspiro[2.4]heptane-4-carbonyl)-5-oxodecahydropyrrolo[1,2-a]azocin-6-yl)carbamoyl)benzo[b]thiophen-5-yl)fluoromethyl)phosphonic acid] | – | – | 1 to 10 µM | ≤ 0.3 µM | –
8 | N#C[C@@H]1CN(C(=O)[C@@H]2CCC[C@@H]3CCC[C@H](NC(=O)c4cc5cc(C(F)(F)P(=O)(O)O)ccc5s4)C(=O)N32)C[C@H]1c1ccccc1 (single isomer, unassigned) [Compound 107, ((2-(((4S,7S,10aS)-4-((3S,4R or 3R,4S)-3-cyano-4-phenylpyrrolidine-1-carbonyl)-6-oxodecahydropyrido [1,2-a]azepin-7-yl)carbamoyl)benzo[b]thiophen-5-yl)difluoromethyl) phosphonic acid] | 0.1 to 1 µM | – | – | – | ≤ 0.3 µM
9 | COc1ncccc1[C@@H]1CN(C(=O)[C@@H]2CC[C@@H]3CCCC[C@H](NC(=O)c4cc5cc(C(F)P(=O)(O)O)ccc5s4)C(=O)N32)C[C@H]1C#N (relative stereo) [Compound 230, ((2-(((3S,6S,10aS)-3-((rel-trans)-3-cyano-4-(2-methoxypyridin-3-yl)pyrrolidine-1-carbonyl)-5-oxodecahydropyrrolo[1,2-a]azocin-6-yl)carbamoyl)benzo[b]thiophen-5-yl)fluoromethyl)phosphonic acid] | – | – | 1 to 10 µM | ≤ 0.3 µM | –
10 | C[C@H]1C[C@H]2CC[C@@H](C(=O)N3CC(c4cnccc4N(C)C)C3)N2C(=O)[C@@H](NC(=O)c2cc3cc([C@H](F)P(=O)(O)O)ccc3s2)C1 [Compound 736, ((R)-(2-(((3S,6S,8R,9aR)-3-(3-(4-(dimethylamino)pyridin-3-yl)azetidine-1-carbonyl)-8-methyl-5-oxooctahydro-1H-pyrrolo[1,2-a]azepin-6-yl)carbamoyl)benzo [b]thiophen-5-yl)fluoromethyl) phosphonic acid] | – | – | < 0.1 µM | 3 to 30 µM | –
11 | COC1(c2cncnc2C)CN(C(=O)[C@@H]2CC[C@@H]3CCC[C@H](NC(=O)c4cc5cc(C(F)(F)P(=O)(O)O)ccc5s4)C(=O)N32)C1 [Compound 721, (difluoro(2-(((3S,6S,9aS)-3-(3-methoxy-3-(4-methylpyrimidin-5-yl)azetidine-1-carbonyl)-5-oxooctahydro-1H-pyrrolo[1,2-a]azepin-6-yl)carbamoyl)benzo [b]thiophen-5-yl)methyl) phosphonic acid] | – | – | 0.1 to 1 µM | 3 to 30 µM | –
12 | COC(=O)N1CC(NC(=O)[C@@H]2CC[C@@H]3CCCC[C@H](NC(=O)c4cc5cc(C(F)P(=O)(O)O)ccc5s4)C(=O)N32)C1 (stereo partly shown) [Compound 523] | – | – | 1 to 10 µM | 3 to 30 µM | –
13 | O=C(N[C@H]1CCC[C@H]2CC[C@@H](C(=O)N3CC(c4ccnc(O)c4)C3)N2C1=O)c1cc2cc(C(F)P(=O)(O)O)ccc2s1 (stereo partly drawn) [Compound 619, (fluoro(2-(((3S,6S,9aS)-3-(3-(2-hydroxypyridin-4-yl)azetidine-1-carbonyl)-5-oxooctahydro-1H-pyrrolo[1,2-a]azepin-6-yl)carbamoyl)benzo [b]thiophen-5-yl)methyl) phosphonic acid] | – | – | 0.1 to 1 µM | 3 to 30 µM | –
14 | CS(=O)(=O)CC1CN(C(=O)[C@@H]2CC[C@@H]3CCC[C@H](NC(=O)c4cc5cc(C(F)(F)P(=O)(O)O)ccc5s4)C(=O)N32)C1 [Compound 790, (difluoro(2-(((3S,6S,9aS)-3-(3-((methylsulfonyl)methyl)azetidine-1-carbonyl)-5-oxooctahydro-1H-pyrrolo[1,2-a]azepin-6-yl)carbamoyl)benzo [b]thiophen-5-yl)methyl) phosphonic acid] | – | – | < 0.1 µM | 3 to 30 µM | –
15 | CC1(c2ccccn2)CN(C(=O)[C@@H]2CC[C@@H]3CCC[C@H](NC(=O)c4cc5cc(C(F)(F)P(=O)(O)O)ccc5s4)C(=O)N32)C1 [Compound 547, (difluoro(2-(((3S,6S,9aS)-3-(3-methyl-3-(pyridin-2-yl)azetidine-1-carbonyl)-5-oxooctahydro-1H-pyrrolo[1,2-a]azepin-6-yl)carbamoyl)benzo[b]thiophen-5-yl)methyl)phosphonic acid] | – | – | < 0.1 µM | 0.3 to 3 µM | –
16 | C[C@@H]1CC[C@H](NC(=O)c2ccc3ccc(CP(=O)(O)O)cc3c2)C(=O)N2[C@H](CC[C@H]2C(=O)N2CC(c3ccccc3)CC23CC3)C1 (stereo partly drawn) [Compound 887, ((7-(((3S,6S,9R,10aR)-9-methyl-5-oxo-3-(6-phenyl-4-azaspiro[2.4]heptane-4-carbonyl)decahydropyrrolo[1,2-a]azocin-6-yl)carbamoyl)naphthalen-2-yl)methyl) phosphonic acid] | – | – | 1 to 10 µM | 0.3 to 3 µM | –
17 | O=C(N[C@H]1CCCC[C@H]2CC[C@@H](C(=O)N3CC(c4ccc[nH]c4=O)C3)N2C1=O)c1cc2cc(C(F)(F)P(=O)(O)O)ccc2s1 [Compound 803, (difluoro(2-(((3S,6S,10aS)-5-oxo-3-(3-(2-oxo-1,2-dihydropyridin-3-yl)azetidine-1-carbonyl)decahydropyrrolo[1,2-a]azocin-6-yl)carbamoyl)benzo [b]thiophen-5-yl)methyl) phosphonic acid] | – | – | < 0.1 µM | 0.3 to 3 µM | –
